# Legend:
# CK2 = target: T1, CK2 (Homo sapiens, UniProt P68400); experiment: CK2 kinase assay (CycLex CK2 kinase assay/inhibitor screening kit); format: biochemical; details: 20 μM
# T1 construct: purchased New England Biolabs (Ipswich, Mass., USA)
# Protocol: All materials were provided from a CycLex CK2 kinase assay/inhibitor screening kit (Medical and Biological Laboratories CO., LTD, Nagoya, Japan).
# All specimens were prepared in triplicate.
# 10 μL of a diluted sample was added to a 96-well plate placed on ice.
# Three wells having 10 μL of a CK2α positive control (2 unit/μL) were included as a positive control in each analysis method. CK2α was purchased from New England Biolabs (Ipswich, Mass., USA).
# A phosphorylation reaction was initiated by adding 90 μL of a phosphorylation reaction buffer to each well, and the 96-well plate was covered with a plate cover. The plate was incubated at 30° C. for 30 minutes. Each well was washed with a washing buffer five times, and it was confirmed whether each well was completely filled. With gentle tapping, a residual washing solution was removed.
# 100 μL of HRP-conjugated detection antibodies were added to each well, and the plate was covered with a plate cover. While the plate was incubated at room temperature (25 to 30° C.) for 30 minutes, the remaining HRP-conjugated detection antibodies after use were removed. Each well was washed five times, and the residual washing buffer was removed with gentle tapping. […]
# Absorbance at dual wavelengths of 450/540 nm was measured for each well using Cytation 5. Data was analyzed.
# Srebp1c mRNA = experiment: qRT-PCR Srebp1c mRNA level in steatosis-induced Huh-7 cells; format: cell-based, Human; details: steatosis-induced (OA/PA) Huh-7 cells; 10 μM; 24 hours
# Protocol: In Experimental Example 5, the Huh-7 cells were plated in 6 wells at 4×10^5 cells/mL and incubated under an atmosphere containing 5% CO2 at 37° C.
# One day later, the cell density approached about 80 to 90%. The medium was changed to an FBS-free RPMI1640 medium, and incubated under an atmosphere containing 5% CO2 at 37° C. for 24 hours.
# Huh-7 cells of each well, excluding control cells, were pretreated with an OA/PA mixture for one hour to induce steatosis. The control cells were pretreated with 1% FA-free BSA.
# Each well was treated with 10 μM of a test compound, and then the cells were incubated for 24 hours. The control cells and OA/PA-treated cells were treated with DMSO. Cells of a positive control were treated with 10 μM of resveratrol, 10 μM of piperine, and 10 μM of YU2014. The medium was entirely aspirated, and the cells were washed with PBS (phosphate buffered saline, Corning, Manassas, Va., USA) two times.
# Total RNA was extracted using a RNeasy RNA isolation kit (Qiagen, Hilden, Germany).
# 10 μL of β-mercaptoethanol (Sigma-Aldrich) per 1 mL of lysis buffer was added, thereby preparing an RNA lysis buffer. […]
# An RNA concentration was measured at O.D. 260 nm using a nanophotometer N60 (Implen, Munich, Germany). The concentration and purity of RNA were measured at O.D. 260/280 nm and calculated as a ratio. […]
# Quantitative analyses for the genes in Table 3 were performed.
# T1 sequence (P68400 whole entry): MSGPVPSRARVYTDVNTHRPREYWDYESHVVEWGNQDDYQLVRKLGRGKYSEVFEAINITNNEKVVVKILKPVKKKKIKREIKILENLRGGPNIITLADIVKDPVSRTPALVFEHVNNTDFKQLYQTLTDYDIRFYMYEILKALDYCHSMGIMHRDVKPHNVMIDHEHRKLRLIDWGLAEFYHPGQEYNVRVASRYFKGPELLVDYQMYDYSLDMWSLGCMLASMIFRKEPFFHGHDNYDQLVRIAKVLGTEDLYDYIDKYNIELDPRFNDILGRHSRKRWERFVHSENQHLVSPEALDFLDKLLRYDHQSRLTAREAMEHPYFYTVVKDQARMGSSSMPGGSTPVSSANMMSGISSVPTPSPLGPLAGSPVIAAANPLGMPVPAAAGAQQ
# T1 sequence (P67870 whole entry partner): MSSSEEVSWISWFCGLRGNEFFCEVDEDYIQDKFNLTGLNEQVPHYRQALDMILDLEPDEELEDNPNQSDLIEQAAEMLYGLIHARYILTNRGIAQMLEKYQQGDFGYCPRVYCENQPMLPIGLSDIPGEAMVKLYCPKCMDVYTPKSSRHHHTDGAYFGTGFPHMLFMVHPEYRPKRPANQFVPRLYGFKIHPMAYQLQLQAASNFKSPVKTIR
smiles,measurement,setting,value
"CSc1ccc(/C=C/C=C/C(=O)N2CCCCC2)cc1 [YU2014, (2E,4E)-5-(4-(methylthio)phenyl)-1-(piperidine-1-yl)penta-2,4-dien-1-one]",CK2 activity (FIG. 21),CK2,did not have a CK2 activity reducing effect
same,Srebp1c mRNA level (FIG. 14),Srebp1c mRNA,reduce

# — patent publication US20200157048A1, “(2E,4E)-5-PHENYL-PENTA-2,4-DIEN-1-ONE DERIVATIVE” (BIOWAY., INC, priority 2018, published 2020)
